In ChEMBL document CHEMBL5608113, “Targeting of CAF-induced therapy resistance in CRC organoid-stroma co-cultures” (2024):

Legend:
Type in all cases: functional, Homo sapiens
Settings in all cases: Homo sapiens, read-out: Cell Viability; for viability at 10 µM: Concentration 10 uM; for viability at 1 µM: Concentration 1 uM
[1] = system: Colon cancer organoid; test: Targeting of F14 CAF-induced therapy resistance in O23 CRC organoid-stroma co-culture. Cell viability is reported with SN-38.
[2] = system: Colon cancer organoid; test: Targeting of F14 CAF-induced therapy resistance in O14 CRC organoid-stroma co-culture. Cell viability is reported without Gefitinib.
[3] = system: Colon cancer organoid; test: Targeting of F14 CAF-induced therapy resistance in O23 CRC organoid-stroma co-culture. Cell viability is reported without Gefitinib.
[4] = system: Colon cancer organoid; test: Targeting of F14 CAF-induced therapy resistance in O23 CRC organoid-stroma co-culture. Cell viability is reported with Gefitinib.
[5] = system: Colon cancer organoid; test: Targeting of F14 CAF-induced therapy resistance in O14 CRC organoid-stroma co-culture. Cell viability is reported with Gefitinib.

Structure (SMILES)	viability at 10 µM [1] [%]	viability at 10 µM [2] [%]	viability at 10 µM [3] [%]	viability at 10 µM [4] [%]	viability at 10 µM [5] [%]	viability at 1 µM [1] [%]	viability at 1 µM [2] [%]	viability at 1 µM [3] [%]	viability at 1 µM [4] [%]	viability at 1 µM [5] [%]
O=C1c2ccc(Nc3ccc(F)cc3F)cc2CCc2ccc(OC[C@H](O)CO)cc21 [Skepinone-L]	77.4	153	143	72.8	56.2					
CN1CCN(C(=O)C(C)(C)c2ccc(C(=O)Nc3cn4cc(-c5cc(C(C)(C)C)cc(C(C)(C)C)c5)ccc4n3)cc2)CC1 [T3-CLK-N]	63.2	112	81.4	28.2	53.2					
CN1CCN(C(=O)C(C)(C)c2ccc(C(=O)Nc3cn4cc(-c5ccncc5)ccc4n3)cc2)CC1 [T3-CLK]	18.9	38.4	27.9	12.1	7.96					
COc1cccc(CNC(=O)c2nc3scc(COCc4ccc(C(=O)O)cc4)c3c(=O)[nH]2)c1 [T-26c]						62.7	173	98.3	68.3	60
COc1cccc(CNC(=O)c2nc3scc(CN(C)Cc4ccccc4)c3c(=O)[nH]2)c1 [T-26f]	67.3	112	98.9	45.7	63.8					
COc1cccc2c1c(O)c(C(=O)N(C)c1ccc(C(F)(F)F)cc1)c(=O)n2C [TASQUINIMOD]	83	80.1	99.2	47.3	61.6					
CC(C)CC(=O)N1CCc2nc(-c3ccc(Br)cc3)nc(N(C)Cc3ccccc3)c2C1 [THPP-1-NC]						70.5	95.7	127	47.3	39.6
COCCOc1nc(-c2ccc(Cl)nc2)nc2c1CN(C(=O)c1ncn3ccccc13)CC2 [THPP-1]						58.4	100	141	47.7	37.5
Cc1cnc(-c2cc(Cl)ccc2F)cc1-n1c(=O)n(CC(N)=O)c2cnccc21 [TP-008]	94	114	147	43.8	43.1					
Cn1nc(C(F)(F)F)cc1-c1cnc(N2CCc3cc(S(=O)(=O)Nc4c(F)cc(Cl)cc4F)cc(N4CCCC4=O)c32)nc1 [TP-020]	92.4	95	133	65.7	61.7					
Nc1cnc(N2CCc3cc(S(=O)(=O)Nc4c(F)cc(Cl)cc4F)cc(N4CCCC4=O)c32)nc1 [TP-020n]						64.8	104	115	45.8	71.3
N#Cc1ccc(Nc2ccc3[nH]c(=O)[nH]c3c2)c(Cl)c1 [TP-021n]						63.2	115	161	47.2	59.2
Cc1cc(-n2nc(Cc3cc(F)cc(C(F)(F)F)c3)nc2C)ccc1C(N)=O [TP-024]	81	110	153	79	49.8					
Cc1nc(Cc2cccc(C(F)(F)F)c2)sc1-c1ccc(C(N)=O)nc1 [TP-024n]						93.5	123	178	43.7	81.1
CN1C(=O)[C@@H](N2CCc3cn(Cc4ccccc4)nc3C2=O)COc2ccccc21 [TP-030-1]						66.7	125	138	56	40.8
CN1C(=O)[C@@H](N2CCc3c(nn(Cc4ccccc4)c3Br)C2=O)COc2ccccc21 [TP-030-2]						63.7	113	165	83.4	31.6
CC1CCN(c2ccnc(NCc3cn(C)cn3)n2)CC1 [TP-040]	62.9	128	107	81.4	55					
CN1CCN(c2ccnc(NCCc3ccccc3)n2)CC1 [TP-040n]	89.4	192	177	100	66.3					
CC(=O)Nc1cccc(-n2c(=O)n(C3CC3)c(=O)c3c(Nc4ccc(I)cc4F)n(C)c(=O)c(C)c32)c1 [TRAMETINIB]	1.6	1.6	1.69	1.61	0.402					
Cc1ccc2[nH]c(CNCCCc3ccncc3)cc(=O)c2c1 [UCSF924NC]	52.3	127	95.8	37.3	33.3					
Cc1ccc2nc(CNCCCOc3ccccc3)cc(O)c2c1 [UCSF924]	63.9	105	119	48.9	36.6					
CNC(=O)c1ccccc1Nc1cc(Nc2ccc(N3CCOCC3)cc2OC)ncc1C(F)(F)F [VS-4718]	19.3	25.2	22.4	4.5	5.44					
O=C(NNS(=O)(=O)c1ccccc1F)c1cc(F)cc(-c2ccccn2)c1 [WM-1119]	57.2	41	121	40.5	19.4					
O=C(NNS(=O)(=O)c1ccccc1)c1cc(-c2ccnnc2)ccc1F [WM-2474]	54.2	77.4	75.6	61.3	30.5					
Nc1nc(NCc2ccccc2)nc(-c2cccc(CO)c2)n1 [ZINC32547799]	119	76	139	75.9	31.3					
